Data from patent US20240239883A1, “METHODS OF TREATING HOMOLOGOUS RECOMBINATION DEFICIENT CANCER” (ASTRAZENECA AB, priority 2020, published 2024).
“And” between values parts separate entries of the source, which are not always exact repeats. Equal values may be shown once.

What was measured:
[1] = system: patients with newly diagnosed, FIGO stage III-IV, high-grade serous or endometrioid ovarian cancer, fallopian tube or primary peritoneal cancer; experiment: PAOLA-1/ENGOT-ov25 phase III trial, first line maintenance: progression-free survival and other efficacy variables; format: in vivo, human
Procedure: Olaparib tablets orally 300 mg twice daily (bd) • 2. Placebo tablets orally 300 mg bd
Patients included in the study were female patients with newly diagnosed advanced (FIGO (International Federation of Gynaecology and Obstetrics) Stage IIIB, IIIC or IV) ovarian cancer, primary peritoneal cancer and/or fallopian tube cancer that was histologically confirmed as: (a) high-grade serous, or (b) high-grade endometrioid, or (c) other epithelial non mucinous ovarian cancer in a patient with gBRCA1 or 2 deleterious mutation.
Additionally, patents had completed first line platinum-taxane chemotherapy prior to randomization. Specifically, the platinum-taxane based regimen consisted of a minimum of 6 and a maximum of 9 treatment cycles; however, if platinum-based therapy was discontinued early as a result of non-haematological toxicity specifically related to the platinum regimen, (i.e., neurotoxicity, hypersensitivity, etc.), patients must have received a minimum of 4 cycles of the platinum regimen. Intravenous, intraperitoneal, or neoadjuvant platinum based chemotherapy was also allowed; for weekly therapy, 3 weeks was considered to be 1 cycle.
Prior to randomization, patients had no evidence of disease (NED) or had been in clinical complete response (CR) or in partial response (PR) following first line treatment. There should have been no clinical evidence of disease progression (physical exam, imaging, or cancer antigen-125 (CA-125)) throughout the first line treatment and prior to study randomization.
Finally, patients were randomized at least 3 weeks and no more than 9 weeks after their last dose of chemotherapy (last dose is the day of the last infusion) and all major toxicities from the previous chemotherapy were resolved.
Tumor samples from the patients were tested post-randomization (but prior to database lock) using the Myriad myChoice® HRD Plus test in order to investigate efficacy in pre-defined biomarker subgroups. The Myriad myChoice® HRD Plus test is delivered from a single central laboratory in Salt Lake City, Utah; it detects and classifies the following biomarkers simultaneously in tumor tissue:
Myriad HRD status is based on the Myriad HRD score and tBRCAm status. A positive Myriad HRD status is determined either by presence of a tBRCA1/2 mutation or by an HRD score at or above a pre-specified cut-off in the absence of a BRCA1/2 mutation. The Myriad HRD cut-off of 42 detects 95% of BRCAm tumors and has been extensively investigated as a biomarker of PARP inhibitor benefit in ovarian cancer. The cut-off of 42 has now been FDA-approved for another PARP inhibitor for the treatment of relapsed ovarian cancer (Myriad myChoice® HRD test offered under the name myChoice® CDx). Reducing the cut-off to 33, enables detection of 99% of BRCAm tumors and retrospective analyses from 2 clinical studies raised the possibility that a 33 cut-off may provide greater precision in determining patients who may benefit from PARP inhibitor treatment.
The data cut-off (DCO) for the analysis of progression-free survival (PFS) PFS is time from randomization to first progression or death according to modified Response Evaluation Criteria in Solid Tumours (RECIST version 1.1). PFS took place when 474 progression events had occurred (58.8% maturity), approximately 45 months after the first patient was randomized. At this DCO, all efficacy, QoL and safety variables were analyzed, as appropriate, based on the amount of data available at that time.
PFS (based on investigator assessment) was the primary variable for the study and was analyzed based on the primary data cut-off using the investigator assessment population.

[2] = cited from earlier work
[3] = in vivo
Procedure: The study design was put into practice as the PAOLA-1/ENGOT-ov25 trial (NCT02477644), which was a randomised, double-blind, international phase III trial that enrolled patients with newly diagnosed, FIGO stage III-IV, high-grade serous or endometrioid ovarian cancer, fallopian tube or primary peritoneal cancer.
Patients were randomized in a 2:1 ratio to the treatments as specified below: • 1. Olaparib tablets orally 300 mg twice daily (bd) • 2. Placebo tablets orally 300 mg bd
The “overall study duration” phase was defined as from the first dose of olaparib or placebo until the last dose of olaparib or placebo+30 days (to account for the 30 day follow-up period).
Common Terminology Criteria for Adverse Events (CTCAE) (version 4.03) defines Grade 1 hypertension as having systolic BP 120-139 mmHg or diastolic BP 80-89 mm Hg; Grade 2 as having systolic BP 140-159 mmHg or diastolic BP 90-99 mm Hg, or recurrent or persistent (≥24 hrs) symptomatic increase by >20 mm Hg (diastolic) or to >140/90 mmHg; Grade 3 as having systolic BP ≥160 mmHg or diastolic BP ≥100 mmHg; Grade 4 hypertension as having life-threatening consequences, e.g., requiring urgent intervention; and Grade 5 hypertension as death.
An adverse event considered “serious” if, in the view of either the investigator or sponsor, it results in any of the following outcomes: death, a life-threatening adverse event, inpatient hospitalization or prolongation of existing hospitalization, or a persistent or significant incapacity or substantial disruption of the ability to conduct normal life functions.
Common Terminology Criteria for Adverse Events (CTCAE) (version 4.03) defines Grade 1 proteinuria as urine dipstick 1+ or <1.0 grams of protein per 24 hours; Grade 2 as urine dipstick 2+ or 1.0-3.4 grams of protein per 24 hours; Grade 3 as urine dipstick 4+ or ≥3.5 grams of protein per 24 hours.

[4] = overall population, KM estimate
[5] = overall population, KM estimate, listed as placebo-plus-bevacizumab
[6] = overall population, KM estimate, listed as placebo/bevacizumab

Compound: O=C(c1cc(Cc2n[nH]c(=O)c3ccccc23)ccc1F)N1CCN(C(=O)C2CC2)CC1 [olaparib, 4-[(3-{[4-(cyclopropane-carbonyl)piperazine-1-yl]carbonyl}-4-fluorophenyl)methyl]-2H-phthalazin-1-one]
- progression free survival greater than for subjects receiving bevacizumab alone ([1]; overall subject population, olaparib in addition to bevacizumab): at least 4 months

Compound: bevacizumab: recombinant humanized monoclonal IgG1 antibody, vascular endothelial growth factor inhibitor
- overall incidence of proteinuria (all grades) ([2]; Study BO17705): 20%
- patients in whom proteinuria did not resolve ([2]; after median follow-up of 11.2 months): 40%
- proteinuria required discontinuation of bevacizumab ([2]; of the patients who developed proteinuria): 30%
- incidence of CTCAE Grade ≥3 hypertension [3]: about 30%

Compound: Placebo/bevacizumab: Comparator arm: placebo tablets plus bevacizumab 15 mg/kg every 3 weeks (bevacizumab alone, without olaparib)
- patients not classified as having had a second progression at the time of analysis (PFS2) ([1]; PFS2 data 39.1% mature): 55.8%
- median time until the first subsequent treatment ([1]; all patients): 18.5 months
- rate of freedom from second disease progression and death at 18 months ([1]; interim analysis of second progression-free survival, data maturity 39%, Kaplan-Meier estimate): 80%
- patients for whom progression occurred on treatment ([1]; overall population): 71.6%
- patients not classified as having progressed at the time of analysis ([1]; overall population): 27.9%
- n (%) of events (PFS) ([1]; overall population (FAS), investigator assessment, modified RECIST 1.1 or death, primary data cut-off): 194 (72.1) n (%)
- Progression free at 6 months [1, 4]: 85.3%
- Progression free at 12 months [1, 4]: 65.6%
- Progression free at 18 months [1, 4]: 45.8%
- Progression free at 24 months [1, 4]: 27.7%
- Progression free at 12 months [1, 5]: 66%
- Progression free at 18 months [1, 5]: 46%
- Progression free at 24 months [1, 5]: 28%
- Progression free at 12 months [1, 6]: 65.6%
- Progression free at 24 months [1, 6]: 27.7%
- Median PFS (95% CI) ([1]; overall population, KM techniques): 16.6 months and 16.6 (15.4, 18.6) months
- proportion of patients with PFS events ([1]; overall population, at data cut-off (474 events, 58.8% maturity)): 72.1%
- median progression-free survival ([1]; patients with HRD-negative tumors (277 patients)): 16.2 months
- median progression-free survival ([1]; patients with HRD-negative tumors or whose tumor HRD status was unknown (419 patients)): 16.0 months
- median progression-free survival ([1]; patients with HRD-positive tumors that did not have BRCA mutations (FIG. 3D)): 16.6 months
- median progression-free survival ([1]; patients with a tumor BRCA mutation (FIG. 3A)): 21.7 months
- median progression-free survival ([1]; patients with tumors positive for HRD (score ≥42 on myChoice HRD Plus or tumor BRCA mutation) (FIG. 3C)): 17.7 months
- median progression-free survival ([1]; patients without a tumor BRCA mutation (FIG. 3B)): 16.0 months
- Hypertension (serious adverse events) [3]: 35 (13.1) Number (%) of patients
- Hypertension CTCAE all Grades [3]: 160 (59.9) Number (%) of patients
- Proteinuria CTCAE Grade 3 or higher [3]: 1 (0.4) Number (%) of patients
- Proteinuria CTCAE all Grades [3]: 40 (15.0) Number (%) of patients
- Vascular disorders (serious adverse events) [3]: 35 (13.1) Number (%) of patients
- adverse drug reactions of proteinuria [3]: 15.4%
- patients who reported adverse events (AEs) [3]: 95.9%
